In the supplement of paper PMC4862054:

Tests used:
Details in all cases: 72 h
[1] = system: CAL-120
Summary of the method: (§1)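 To measure viability, fluorescence at 560/590 nm was read after 2.5 µl CellTiter-Blue had been added for 2 h at 37 °C. Cells from breast cancer lines had been seeded in 20 µl suspension onto 384-well plates pre-loaded with compound dissolved in 5 µl medium and kept for 72 h. EC50 comes from a fitted percent-inhibition dose-response curve censored at the highest concentration, after per-plate normalisation to vehicle and a positive kill control, Z'-factor checks, and removal of rows with zero drug sensitivity score.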

[2] = system: MFM-223
Summary of the method: as §1

[3] = system: BT-549
Summary of the method: as §1

[4] = system: MDA-MB-436
Summary of the method: as §1

[5] = system: MDA-MB-468
Summary of the method: as §1

[6] = system: SK-BR-3
Summary of the method: as §1

[7] = system: BT-474
Summary of the method: as §1

[8] = system: Hs578T
Summary of the method: as §1

[9] = system: MDA-MB-231
Summary of the method: as §1

[10] = system: HCC1937
Summary of the method: as §1

SMILES	EC50, CellTiter-Blue viability [1] [nM]	EC50, CellTiter-Blue viability [2] [nM]	EC50, CellTiter-Blue viability [3] [nM]	EC50, CellTiter-Blue viability [4] [nM]	EC50, CellTiter-Blue viability [5] [nM]	EC50, CellTiter-Blue viability [6] [nM]	EC50, CellTiter-Blue viability [7] [nM]	EC50, CellTiter-Blue viability [8] [nM]	EC50, CellTiter-Blue viability [9] [nM]	EC50, CellTiter-Blue viability [10] [nM]
Nc1cc(C(F)(F)F)c(-c2cc(N3CCOCC3)nc(N3CCOCC3)n2)cn1 [BKM-120]	887	1360	1570	4190	2330	257	1180	3010	1910	2090
O=C(Nc1ccncc1)C(=O)c1cn(Cc2ccc(Cl)cc2)c2ccccc12 [Indibulin]	22.4	377	135	64.5	61.8	26.1	31.3	938	87.2	18.1
Cc1[nH]c2ccccc2c1CCNCc1ccc(/C=C/C(=O)NO)cc1 [Panobinostat]	11.1	39.9	125	107	88.3	10.2	28.6	26.2	32.6	14.6
Cc1cc(Nc2cc(CN3CCOCC3)c3nc(C)c(Cc4ccc(Cl)cc4F)n3n2)n[nH]1	877	83.5	2370	1080	1150	3180	2920	2080	1750	3820
CNC(=O)c1cc(Oc2ccc(NC(=O)Nc3ccc(Cl)c(C(F)(F)F)c3)c(F)c2)ccn1 [Regorafenib]	9380	706	7210		7800		8340	6690	2370	5960
COCC[n+]1c2c(n(Cc3cnccn3)c1C)C(=O)c1ccccc1C2=O [YM155]	3.68	17.3	50.8	7.68	2.99	8.44	19.4	102	2.85	4.46
O=C(/C=C/c1cccc(S(=O)(=O)Nc2ccccc2)c1)NO [Belinostat]	204	605	1890	553	1940	200	889	1890	684	578
CCc1c2c(nc3ccc(OC(=O)N4CCC(N5CCCCC5)CC4)cc13)-c1cc3c(c(=O)n1C2)COC(=O)[C@]3(O)CC [Irinotecan]	1110	9110	4110	1010	1430	3740			8350	961
CO[C@H]1C[C@@H]2CC[C@@H](C)[C@@](O)(O2)C(=O)C(=O)N2CCCC[C@H]2C(=O)O[C@H]([C@H](C)C[C@@H]2CC[C@@H](OP(C)(C)=O)[C@H](OC)C2)CC(=O)[C@H](C)/C=C(\C)[C@@H](O)[C@@H](OC)C(=O)[C@H](C)C[C@H](C)/C=C/C=C/C=C/1C [Ridaforolimus]	1	0.24	0.19	> 1000	0.39	1.36	0.55	0.48	0.95	1.12
